Structures can show the parent of a compound that is named as a salt.
Assay: Stain bleach performance of the peroxidase/enhancer system on tomato stains (wash test, no hydrogen peroxide added)
Method: The potential of the enzymatic bleach system, consisting of a peroxidase enzyme and an enhancer, to bleach stains was assessed by washing cotton swatches soiled with tomato stains. The experiments were performed in 1 l beakers, to which 800 ml of wash solution were added. […]
The swatches were washed during 30 minutes at 30° C. After the wash, the swatches were tumble-dried and the reflectance spectra were measured using a Minolta spectrometer. The color differences between the swatch before and after the wash data were expressed in the CIELAB L*a*b* color space. In this color space, L* indicates lightness and a* and b* are the chromaticity coordinates. Color differences between two swatches are expressed as ΔE, which is calculated from the following equation:
ΔE={square root}{square root over (ΔL^2+Δa^2+Δb^2)}

[1] = cotton swatches soiled with tomato stains, enhancer 250 μM, peroxidase from Arthromyces ramosus 50 μg/l, wash solution 2 g/l, pH 10.5, 30 minutes at 30° C, no enhancer: 6.5

## COC(=O)C(=O)NNc1ccccc1 [Methyl [2-phenyl]hydrazide oxalate]
[1]
  ΔE: 9.8

## O=C(NNc1ccccc1)c1ccccc1 [2′-phenylbenzohydrazide]
[1]
  ΔE: 7.4

## Nc1ccc(S(=O)(=O)NNC(=O)C(=O)NNc2ccccc2)cc1 [Ethanedioic acid, 2-[(4-aminophenyl)sulfonyl]-hydrazide-2-phenylhydrazide]
Example 2, enhancer 50 μM, peroxidase 5 mg/l, tomato stains, peroxidase without enhancer 7.7
  ΔE: 8.3
Example 2, enhancer 100 μM, peroxidase 5 mg/l, tomato stains, peroxidase without enhancer 7.7
  ΔE: 9.0
Example 2, enhancer 200 μM, peroxidase 5 mg/l, tomato stains, peroxidase without enhancer 7.7
  ΔE: 9.6
Example 2, enhancer 200 μM, peroxidase None, tomato stains, None/None control 7.5
  ΔE: 7.4
[1]
  ΔE: 8.1

## CCOC(=O)C(=O)NNc1cccc(Cl)c1 [Ethyl [2-(3-chlorophenyl)]hydrazide oxalate]
[1]
  ΔE: 7.8

## CCCOC(=O)C(=O)NNc1ccccc1 [Propyl [2-phenyl]hydrazide oxalate]
[1]
  ΔE: 9.8

From patent US20020016279A1, “Enzymatic oxidation composition and process” (Unilever Home & Personal Care USA, Division of Conopco, Inc., priority 2000, published 2002)
